# In patent publication US8188144B2, “In vitro preservation of living animal cells and compounds suitable for use in the preservation of living animal cells” (Antoxis Limited, priority 2007, dated 2012):
# System: mouse embryonic stem cells
# Test: MTT cell viability assay of tert-butyl hydroperoxide oxidative stress-induced cytotoxicity in mouse embryonic stem cells
# Format: cell-based
# Conditions: for viability at 0.1 µM / viability at 0.5 µM / viability at 1 µM: Mus musculus, Embryonic stem cell, read-out: Ave. Cell Viability (%)
# Method: Oxidative stress and related free radical damage can be induced in cells, including stem cells, by exposing the cells to tert-butyl hydroperoxide in the incubation medium. Decomposition of the peroxide over a period of time leads to a steady generation of reactive oxygen species. This in turn triggers a cascade of free radical-mediated events that eventually leads to irreversible damage and ultimately cell death as the natural antioxidant defences are overwhelmed.
# The extent of cytotoxicity induced by peroxide exposure can be quantified using a number of well-documented assays, including the MTT protocol. This is a colorometric assay that measures the reduction of MTT to formazan, a process that can only occur when cells are viable. Thus, by comparing the amount of formazan produced in control cells, against cells treated with a cytotoxic agent, such as tert-butyl hydroperoxide, the reduction in cell viability induced by the agent can be measured.
# The assay can be further extended to determine the effectiveness of compounds to provide protection against cytotoxic agents. In the case of the novel antioxidants, the subject of this patent, this can be achieved by pre-incubation of the cells with the antioxidant agent prior to induction of oxidative stress by tert-butyl hydroperoxide. Thus a comparison of the amount of formazan produced by control cells against cells with the cytotoxic peroxide present, plus or minus pre-incubation with the novel antioxidant, can determine the extent by which the compound can retain cell viability.
# A 96-well plate was seeded with approximately 20,000 mouse embryonic stem cells per well and left to grow at 37° C. (5% CO2) overnight. Antioxidants, denoted as Exp.1, Exp.2 and Exp.3, were dissolved in DMSO and added to the wells in triplicate 30 min before induction of oxidative stress with tert-butyl hydroperoxide. The resultant concentrations of the tested antioxidants in the wells were 0.1, 0.5 and 1 μM. Controls were also initiated using cell medium (DMEM^+)/DMSO. After the 30 min pre-incubation period, tert-butyl peroxide was added to the wells to provide a final concentration of 400 μM. The plated cells were returned to the incubator (37° C.) for 90 min. After this period, 20 μL of the MTT reagent solution was added to all of the wells. The plate was then further incubated for a further 3 hours. The supernatant was removed from the wells and 200 μl DMSO added to all wells to solubilise reduced MTT (formazan). The plate was protected from light and shaken for 10 min. The supernatant was removed from the wells and aliquoted into a new 96-well plate for the colorometric measurements. Absorbance was determined at 540 nm.
# The average corrected absorbance. (0.737) for the DMEM^+ control (which contained no antioxidant compounds or tert-butyl hydroperoxide) represented the 100% viability benchmark. Comparison of the corrected absorbances in the various well treatment regimes relative to that of the DMEM^+ control enabled the resultant effects on cell viability to be calculated. tBHP=tert-butyl hydroperoxide.
SMILES,viability at 0.1 µM [%],viability at 0.5 µM [%],viability at 1 µM [%],"Ave. Cell Viability (%) (mouse, 120 min, 1 μM)","Ave. Cell Viability (%) (400 μM tBHP alone, no antioxidant, 90 min, relative to DMEM+ control = 100%)","Ave. Cell Viability (%) (400 μM tBHP alone, no antioxidant, 90 min, relative to DMEM+ control = 100%, listed as tert-butyl hydroperoxide)"
CCCCCCCCc1cc(=O)c(O)c(-c2cc(O)c(O)c(O)c2)o1 [Exp.3],34.4,55.5,70.4,–,–,–
CCCCCCCCCCCCc1cc(=O)c(O)c(-c2cc(O)c(O)c(O)c2)o1 [Exp.2],60.5,94.8,96.9,104.1,–,–
CCCCCCCCCCc1ccc2c(=O)c(O)c(-c3cc(O)c(O)c(O)c3)oc2c1 [Exp.1],56.9,86.5,84.8,107.4,–,–
"CC(C)(C)OO [tBHP, tert-butyl hydroperoxide, reference compound]",–,–,–,–,37.0,37
